Reference: article PMC12051234, “NrdR in Streptococcus and Listeria spp.: DNA Helix Phase Dependence of the Bacterial Ribonucleotide Reductase Repressor” (Molecular Microbiology, 2025)

Target: T1, LmoNrdR (Listeria monocytogenes, UniProt Q8Y6W9)
T1 construct: gene nrdR; full-length, C-terminal His6 tag kept (pET30a(+), NdeI/XhoI), E. coli BL21(DE3); 19 kDa with tag
T1 sequence (Q8Y6W9 1-154): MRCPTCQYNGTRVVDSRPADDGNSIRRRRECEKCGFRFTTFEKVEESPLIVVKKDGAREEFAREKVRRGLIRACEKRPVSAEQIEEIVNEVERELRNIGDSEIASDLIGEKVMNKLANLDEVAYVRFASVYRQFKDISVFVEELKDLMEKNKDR
Assay: size exclusion chromatography, oligomer shift; MST of DNA binding
Details: 25 mM Bis-Tris propane pH 6.5, 5 mM MgCl2, 100 mM KCl, 4 C; ADP alone

Nc1ncnc2c1ncn2[C@@H]1O[C@H](COP(=O)(O)OP(=O)(O)O)[C@@H](O)[C@H]1O [ADP]
size exclusion chromatography, oligomer shift; MST of DNA binding: LmoNrdR also eluted as a tetramer in the presence of only ADP
